US10322143B2, “Inhibitors of ADAMTS4 or ADAMTS5 for use in preventing or treating cardiac remodeling and chronic heart failure” (Universitetet i Oslo, priority 2013, dated 2019)

System: aortic banding rats
Assay: Aortic banding rat model: echocardiography and organ weights after PPS-treatment
Type: in vivo
Conditions: for Aorta / FS (fractional shortening) / Heart wt / IVSd (interventricular septal thickness at diastole) / LAD (left atrial diameter) / LV wt / LVDd (left ventricular diameter at diastole) / LVDs (left ventricular diameter at systole) / Lung wt / PWd (posterior wall thickness at diastole) / RV wt / Tissue Doppler Maximal velocity / Tissue Doppler Minimal velocity / HR (heart rate): PPS 6 mg/kg s.c. every third day, mean ± SEM; for HR (heart rate): in bpm (unit assumed)
Source text: The experimental procedures conformed to the European Convention for the Protection of Vertebrate Animals Used for Experimental and Other Scientific Purposes, and the protocols were approved by the Norwegian Council for Animal Research. Male Wistar rats weighing 160-170 g underwent AB essentially as described previously (Lunde et al. Physiol Genomics 2011. 44(2):162-72). Briefly, the ascending aorta was dissected free through a right hemithoracotomy, and ligated (3-0 silk) against a steel wire. The sham-operated rats (sham) were subjected to the same surgical procedure with a loose suture around the aorta. In all surgical procedures performed, a mixture of 67% N2O, 28% O2, and 4% isoflurane in an anaesthesia chamber was used for preoperative sedation. To maintain anaesthesia preoperatively, a mixture of 69% N2O, 29% O2, and 2% isoflurane was given by the endotracheal tube and the animals were ventilated on a respirator (Zoovent, Triumph Technical Services, Milton Keynes, UK). Buprenorphine was given as postoperative analgesia after AB.
In vivo heart function was evaluated using the Vevo2100 system (Visualsonics Inc, Canada) as previously described (Sjaastad et al. J Appl Physiol 2000; 89:1445-54). Thereafter, the heart was excised under deep anaesthesia, washed in saline and blotted dry to remove blood in the cardiac chambers. The heart chambers were separated by rapid dissection, before being snap-frozen in liquid nitrogen and stored at −70° C. until further analyses. For AB rats not receiving PPS- or vehicle treatment, selection into heart failure (ABHF) or hypertrophy (ABHT) groups was based on echocardiographic and postmortem analysis, as follows: Inclusion criteria for ABHF group were increased lung weight (>2.5 g), increased posterior wall diameter in diastole (PWDd) (>2.0 mm) and increased left atrial diameter (>5.0 mm), while criteria for inclusion in the ABHT group were increased PWDd (>2.0 mm), increased left ventricular weight (>0.75 g) and preserved lung weight (<2.0 g).
Three days after AB, rats were stratified by the gradient over the stenosis to ensure similar degree of cardiac stress. Two and two stratified rats were randomized to either 6 mg/kg of the sulfated polysaccharide sodium pentosan polysulfate (PPS) (Interfarm AS, Norway) or vehicle (0.9% NaCl) injected subcutaneously every third day. […] Six weeks after AB or sham operation, the rats were examined by echocardiography and postmortem analysis, performed by experienced investigators (IS, JMA) blinded to treatment group.

[1] = PPS-treated vs vehicle-treated AB-rats
[2] = aortic banding rats, six weeks after AB

Substance: pentosan polysulfate [PPS]
- side effects including haemorrhage (AB rats, 6 mg/kg s.c. every third day, observed at daily basis): no side effects
- lung weight compared to vehicle (PPS-treated AB-rats): tendency towards lower
- higher fractional shortening compared to vehicle-treated AB-rats [1]: 23%
- left ventricular diameter in systole as part of the diameter in vehicle-treated AB-rats [1]: three quarters
- Aorta [2]: 2.56 ± 0.03 mm
- FS (fractional shortening) [2]: 59.2 ± 1.5%
- Heart wt [2]: 1.87 ± 0.09 g
- IVSd (interventricular septal thickness at diastole) [2]: 2.11 ± 0.06 mm
- LAD (left atrial diameter) [2]: 4.18 ± 0.14 mm
- LV wt [2]: 0.95 ± 0.07 g
- LVDd (left ventricular diameter at diastole) [2]: 6.53 ± 0.13 mm
- LVDs (left ventricular diameter at systole) [2]: 2.67 ± 0.12 mm
- Lung wt [2]: 1.64 ± 0.08 g
- PWd (posterior wall thickness at diastole) [2]: 2.13 ± 0.06 mm
- RV wt [2]: 0.18 ± 0.01 g
- Tissue Doppler Maximal velocity [2]: 50.70 ± 2.94
- Tissue Doppler Minimal velocity [2]: 59.06 ± 3.26
- HR (heart rate) [2]: 420 ± 6
- Aorta (sham-operated rats, six weeks): 2.63 ± 0.04 mm
- FS (fractional shortening) (sham-operated rats, six weeks): 53.6 ± 5.8%
- Heart wt (sham-operated rats, six weeks): 1.19 ± 0.11 g
- IVSd (interventricular septal thickness at diastole) (sham-operated rats, six weeks): 1.56 ± 0.04 mm
- LAD (left atrial diameter) (sham-operated rats, six weeks): 3.68 ± 0.14 mm
- LV wt (sham-operated rats, six weeks): 0.70 ± 0.03 g
- LVDd (left ventricular diameter at diastole) (sham-operated rats, six weeks): 6.89 ± 0.10 mm
- LVDs (left ventricular diameter at systole) (sham-operated rats, six weeks): 3.20 ± 0.41 mm
- Lung wt (sham-operated rats, six weeks): 1.41 ± 0.03 g
- PWd (posterior wall thickness at diastole) (sham-operated rats, six weeks): 1.68 ± 0.08 mm
- RV wt (sham-operated rats, six weeks): 0.17 ± 0.01 g
- Tissue Doppler Maximal velocity (sham-operated rats, six weeks): 72.9 ± 8.6
- Tissue Doppler Minimal velocity (sham-operated rats, six weeks): 82.4 ± 6.1
- HR (heart rate) (sham-operated rats, six weeks): 412 ± 11
